For assay [1], the target named is T1, DDR1 kinase (Homo sapiens, UniProt Q08345). Put plainly: Evaluation of DDR1 kinase inhibition in DDR1-expressing U2OS cells (type I collagen stimulation, PathHunter detection). In kind it is cell-based. More on the design: host or cells: U2OS. Conditions: type I collagen 50 µg/mL stimulation, duplicate, read-out: DDR-1 IC50. How it is done: The solution was further diluted in an E-MEM medium (Fujifilm Wako Pure Chemicals, 051-07615) containing 10% fetal bovine serum (FBS, Gibco, 10270106) to 60000, 6000, 600, 60, 6, and 0.6 nM to prepare test substance solutions. 2. […] On the following day, after the plate was left at room temperature for 1 hour, a detection solution was added to the wells at […] according to the handling instructions for the PathHunter® Detection Kit (DiscoverX, 93-0001), and then incubated at room temperature for 2 hours. After the incubation, a luminescence intensity was measured by Envision (Perkin-Elmer). Tests were performed in duplicate. 3.
Target sequence in this assay (Q08345 19-913): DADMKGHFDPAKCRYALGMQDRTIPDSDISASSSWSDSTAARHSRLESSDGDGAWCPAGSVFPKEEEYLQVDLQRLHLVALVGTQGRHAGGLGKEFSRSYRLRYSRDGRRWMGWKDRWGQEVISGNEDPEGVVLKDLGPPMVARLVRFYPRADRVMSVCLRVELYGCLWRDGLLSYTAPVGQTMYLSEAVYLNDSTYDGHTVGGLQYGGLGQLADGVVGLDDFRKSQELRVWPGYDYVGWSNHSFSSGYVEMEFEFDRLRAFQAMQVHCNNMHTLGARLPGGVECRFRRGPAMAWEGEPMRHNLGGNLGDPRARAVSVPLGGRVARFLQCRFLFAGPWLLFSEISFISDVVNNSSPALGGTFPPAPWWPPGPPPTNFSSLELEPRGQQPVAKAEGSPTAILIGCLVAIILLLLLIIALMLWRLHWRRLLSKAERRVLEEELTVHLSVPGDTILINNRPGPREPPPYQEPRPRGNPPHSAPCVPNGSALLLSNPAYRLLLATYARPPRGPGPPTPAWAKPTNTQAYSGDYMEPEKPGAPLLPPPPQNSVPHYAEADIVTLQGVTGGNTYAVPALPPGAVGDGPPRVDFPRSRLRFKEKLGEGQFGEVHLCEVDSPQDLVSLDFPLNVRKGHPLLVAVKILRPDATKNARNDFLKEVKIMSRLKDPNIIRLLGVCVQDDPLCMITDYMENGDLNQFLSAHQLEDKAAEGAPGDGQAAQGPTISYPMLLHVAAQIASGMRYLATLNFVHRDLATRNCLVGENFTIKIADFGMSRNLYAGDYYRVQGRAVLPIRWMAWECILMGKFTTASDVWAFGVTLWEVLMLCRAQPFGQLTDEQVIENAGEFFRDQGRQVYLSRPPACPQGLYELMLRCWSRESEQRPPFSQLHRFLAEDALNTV

For assay [2], the target named is T1, DDR1 kinase. Kind of assay: Evaluation of DDR1 kinase inhibition (LANCE Ultra TR-FRET kinase assay). The assay is classed as biochemical. More on the design: purchased Carna Biosciences 08-113. Conditions: DDR1 protein 0.5 nM, LANCE Ultra ULight-poly GAT substrate, 2 hours at room temperature, duplicate; read-out: DDR-1 IC50.
Target sequence in this assay (Q08345 19-876 isoform Q08345-2 limits assumed): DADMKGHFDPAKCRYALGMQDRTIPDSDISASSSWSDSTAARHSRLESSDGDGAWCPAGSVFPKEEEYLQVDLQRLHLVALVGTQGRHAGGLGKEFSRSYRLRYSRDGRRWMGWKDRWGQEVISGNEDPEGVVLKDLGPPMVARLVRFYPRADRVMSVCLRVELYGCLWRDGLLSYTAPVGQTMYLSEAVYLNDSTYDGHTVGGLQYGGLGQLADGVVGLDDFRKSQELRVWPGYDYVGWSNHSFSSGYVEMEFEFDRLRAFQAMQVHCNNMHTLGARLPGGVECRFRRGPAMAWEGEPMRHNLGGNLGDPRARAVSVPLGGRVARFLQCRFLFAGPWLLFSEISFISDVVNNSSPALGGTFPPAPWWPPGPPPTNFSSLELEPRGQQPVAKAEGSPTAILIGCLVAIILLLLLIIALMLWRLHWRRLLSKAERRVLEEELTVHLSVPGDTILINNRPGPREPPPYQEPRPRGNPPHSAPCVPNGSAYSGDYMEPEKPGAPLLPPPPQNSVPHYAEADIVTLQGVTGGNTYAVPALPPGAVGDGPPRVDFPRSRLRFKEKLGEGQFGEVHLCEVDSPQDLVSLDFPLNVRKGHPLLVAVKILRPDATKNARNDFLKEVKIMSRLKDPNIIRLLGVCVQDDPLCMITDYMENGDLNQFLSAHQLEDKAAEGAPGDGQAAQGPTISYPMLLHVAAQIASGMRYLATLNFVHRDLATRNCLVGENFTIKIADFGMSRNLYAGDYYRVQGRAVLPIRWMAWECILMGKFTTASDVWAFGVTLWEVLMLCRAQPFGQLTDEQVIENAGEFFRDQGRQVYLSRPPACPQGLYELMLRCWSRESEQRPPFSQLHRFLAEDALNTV

Each structure is given as a SMILES string. Where a name gives a salt, the structure may show the parent alone.

This note sets out measurements from patent EP4624465A1, “COMPOUND SERVING AS DDR1 KINASE INHIBITOR, AND MEDICINE” (Nippon Shinyaku Co., Ltd., priority 2022, dated 2024).

For the compound `Nc1ncc(F)c(C(=O)N2CC(c3nn(CC(=O)N4CCC[C@H]4C(F)(F)F)c4ccccc34)C2)n1` [Compound E-22, 2-{3-[1-(2-amino-5-fluoropyrimidine-4-carbonyl)azetidin-3-yl]-1H-indazol-1-yl}-1-[(2S)-2-(trifluoromethyl)pyrrolidin-1-yl]ethan-1-one], the IC50 (as a rule, the concentration that inhibits the measured activity by half) was determined as 18 nM on DDR1 kinase [1] and 5.6 nM at DDR1 kinase [2].

With `Nc1cc(C(=O)N2CC(c3nn(CC(=O)N4CCO[C@@H](C(F)(F)F)C4)c4cc(F)cc(F)c34)C2)ccn1` [Compound E-73, 2-(3-[1-(2-aminopyridine-4-carbonyl)azetidin-3-yl]-4,6-difluoro-1H-indazol-1-yl}-1-l(2R)-2-(trifluoromethyl)morpholin-4-yl]ethan-1-one hydrochloride], the IC50 stood at 13 nM at DDR1 kinase [1] and 5.6 nM on DDR1 kinase [2].

Regarding `Nc1cc(C(=O)N2CC(c3nn(C(F)C(=O)N4CCC[C@H]4C(F)(F)F)c4cc(F)cc(F)c34)C2)ccn1` (stereo partly drawn) [Compound E-107, 2-{3-[1-(2-aminopyridine-4-carbonyl)azetidin-3-yl]-4,6-difluoro-1H-indazol-1-yl}-2-fluoro-1-[(2S)-2-(trifluoromethyl)pyrrolidin-1-yl]ethan-1-one], the 50% inhibitory concentration (IC50) amounted to 670 nM on DDR1 kinase [1] and 91 nM on DDR1 kinase [2].

On to `Nc1cc(C(=O)N2CC(c3nn(CC(=O)NC4CC(F)(F)C4)c4ccccc34)C2)ccn1` [Compound E-214, 2-{3-[1-(2-aminopyridine-4-carbonyl)azetidin-3-yl]-1H-indazol-1-yl}-N-(3,3-difluorocyclobutyl)acetamide], for which the IC50 on DDR1 kinase [1] turned out to be 380 nM; on DDR1 kinase [2] it was 10 nM.

In the case of `Nc1cc(C(=O)N2CC(c3nn(CC(=O)NCC(F)(F)F)c4ccc(F)c(Br)c34)C2)ccn1` [Compound E-70, 2-{3-[1-(2-aminopyridine-4-carbonyl)azetidin-3-yl]-4-bromo-5-fluoro-1H-indazol-1-yl}-N-(2,2,2-trifluoroethyl)acetamide hydrochloride], the IC50 was 120 nM at DDR1 kinase [1] and 1.7 nM at DDR1 kinase [2].

Regarding `Cc1nc(N)oc1C(=O)N1CC(c2nn(CC(=O)N3CCC[C@H]3C(F)(F)F)c3cc(F)cc(F)c23)C1` [Compound E-110, 2-{3-{1-(2-amino-4-methyl-1,3-oxazole-5-carbonyl)azetidin-3-yl}-4,6-difluoro-1H-indazol-1-yl}-1-[(2S)-2-(trifluoromethyl)pyrrolidin-1-yl]ethan-1-one], the IC50 came to 110 nM on DDR1 kinase [1] and 45 nM at DDR1 kinase [2].

On to `Nc1cc(C(=O)N2CC(c3nn(Cc4nc(C(F)(F)F)no4)c4cccc(F)c34)C2)ccn1` [Compound E-115, 4-[3-(4-fluoro-1-{[3-(trifluoromethyn-1,2,4-oxadiazol-5-yl]methyl}-1H-indazol-3-yl)azetidine-1-carbonyl]pyridin-2-amine hydrochloride], for which the IC50 is 250 nM on DDR1 kinase [1] and 8.6 nM at DDR1 kinase [2].

With `Nc1cc(C(=O)N2CC(c3nn(CC(=O)N4CCO[C@H](C(F)(F)F)C4)c4cc(F)cc(F)c34)C2)ccn1` [Compound E-82, 2-{3-[1-(2-aminopyridine-4-carbonyl)azetidin-3-yl]-4,6-difluoro-1H-indazol-1-yl}-1-[(2S)-2-(trifluoromethyl)morpholin-4-yl]ethan-1-one], the IC50 came out at 130 nM on DDR1 kinase [1] and 0.8 nM at DDR1 kinase [2].

In the case of `Cc1ccnc2c1c(C1CN(C(=O)c3ccnc(N)c3)C1)nn2CC(=O)N1CCC[C@H]1C(F)(F)F` [Compound E-15, 2-{3-[1-(2-aminopyridine-4-carbonyl)azetidin-3-yl]-4-methyl-1H-pyrazolo[3,4-b]pyridin-1-yl}-1-[(2S)-2-(trifluoromethyl)pyrrolidin-1-yl]ethan-1-one], the IC50 on DDR1 kinase [1] amounted to 2600 nM; at DDR1 kinase [2], 210 nM.

With `Cc1nc(N)sc1C(=O)N1CC(c2nn(CC(=O)N3CCCC3COC(F)(F)F)c3cncc(F)c23)C1` [Compound E-183, 2-{3-[1-(2-amino-4-methyl-1,3-thiazole-5-carbonylazetidin-3-yl)-4-fluoro-1H-pyrazolo[3,4-c]pyridin-1-yl}-1-[(2S)-2-[(trifluoromethoxy)methyl]pyrrolidin-1-yl]ethan-1-one p-toluenesulfonate], the IC50 at DDR1 kinase [1] stood at 500 nM; on DDR1 kinase [2], 8.8 nM.

For `Cn1nccc1NC(=O)Cn1nc(C2CN(C(=O)c3cc(N)ncc3F)C2)c2ccccc21` [Compound E-247, 2-{3-[1-(2-amino-5-fluoropyridine-4-carbonyl)azetidin-8-yl]-1H-indazol-1-yl}-N-(1-methyl-1H-pyrazol-5-yl)acetamide], the IC50 on DDR1 kinase [1] was 300 nM; on DDR1 kinase [2], 47 nM.

As to `Nc1cc(C(=O)N2CC(c3nn(CC(=O)N4CCC[C@H]4C(F)(F)F)c4ccccc34)C2)ccn1` [Compound E-40, 2-{3-[1-(2-aminopyridine-4-carbonyl)azetidin-3-yl]-1H-indazol-1-yl}-1-[(2S)-2-(trifluoromethyl)pyrrolidin-1-yl]ethan-1-one], the IC50 on DDR1 kinase [1] came out at 69 nM; at DDR1 kinase [2] it was 5.7 nM.

With `Nc1cc(C(=O)N2CC(c3nn(Cc4cccc(C(F)(F)F)c4)c4cccc(F)c34)C2)ccn1` [Compound E-113, 4-[3-(4-fluoro-1-{[3-(trifluoromethyl)phenyllmethyl}-1H-indazol-3-yl)azetidine-1-carbonyl]pyridin-2-amine hydrochloride], the IC50 is 470 nM at DDR1 kinase [1] and 25 nM on DDR1 kinase [2].

Take `CN(CC(F)F)C(=O)Cn1nc(C2CN(C(=O)c3cc(N)ncc3F)C2)c2ccccc21` [Compound E-269, 2-{3-[1-(2-amino-5-fluoropyridine-4-carbonyl)azetidin-3-yl]-1H-indazol-1-yl}-N-(2,2-difluoroethyl)-N-methylacetamide]: the IC50 amounted to 38 nM on DDR1 kinase [1] and 4.8 nM at DDR1 kinase [2].

`Cc1c(C(=O)N2CC(c3nn(CC(=O)N4CCO[C@@H](C(F)(F)F)C4)c4ccccc34)C2)ccnc1N` [Compound E-8, 2-{3-[1-(2-amino-3-methylpyridine-4-carbonyl)azetidin-3-yl]-1H-indazol-1-yl}-1-[(2R)-2-(trifluoromethyl)morpholin-4-yl]ethan-1-one]: the IC50 on DDR1 kinase [1] is 230 nM; on DDR1 kinase [2], 5.2 nM.

For `CC(C)[C@@H]1COCCN1C(=O)Cn1nc(C2CN(C(=O)c3ccnc(N)c3)C2)c2c(F)cc(F)cc21` [Compound E-83, 2-{3-[1-(2-aminopyridine-4-carbonyl)azetidin-3-yl]-4,6-difluoro-1H-indazol-1-yl]-1-[(3R)-3-(propan-2-yl)morpholin-4-yl]ethan-1-one], the IC50 at DDR1 kinase [1] came to 74 nM; at DDR1 kinase [2] it was 0.3 nM.

With `C[C@@H]1COCCN1C(=O)Cn1nc(C2CN(C(=O)c3ccnc(N)c3)C2)c2c(F)cc(F)cc21` [Compound E-80, 2-{3-[1-(2-aminopyridine-4-carbonyl)azetidin-3-yl]-4,6-difluoro-1H-indazol-1-yl}-1-[(3R)-3-methylmorpholin-4-yl]ethan-1-one hydrochloride], the IC50 on DDR1 kinase [1] worked out at 4200 nM; at DDR1 kinase [2] it was 36 nM.

Consider `Nc1cc(C(=O)N2CC(c3cn(CC(=O)N4CCC[C@H]4C(F)(F)F)c4ccccc34)C2)ccn1` [Compound E-11, 2-{3-[1-(2-aminopyridine-4-carbonyl)azetidin-3-yl]-1H-indol-1-yl}-1-[(2S)-2-(trifluoromethyl)pyrrolidin-1-yl]ethan-1-one], for which the IC50 on DDR1 kinase [1] was determined as 110 nM; on DDR1 kinase [2] it was 6.1 nM.

On to `CN(CC(F)(F)F)C(=O)Cn1nc(C2CN(C(=O)c3ccnc(N)n3)C2)c2cc(Cl)ccc21` [Compound E-4, 2-{3-[1-(2-aminopyrimidine-4-carbonyl)azetidin-3-yl]-5-chloro-1H-indazol-1-yl}-N-methyl-N-(2,2,2-trifluoroethyl)acetamide], for which the values for the IC50 at DDR1 kinase [1] and on DDR1 kinase [2] were 55 nM and 2 nM, respectively.

Consider `Nc1cc(C(=O)N2CC(c3nn(CC(=O)N4CCO[C@@H](C(F)(F)F)C4)c4cccc(F)c34)C2)ccn1` [Compound E-95, 2-{3-[1-(2-aminopyridine-4-carbonyl)azetidin-3-yl]-4-fluoro-1H-indazol-1-yl}-1-[(2R)-2-(trifluoromethyl)morpholin-4-yl]ethan-1-one hydrochloride], for which the IC50 came out at 480 nM at DDR1 kinase [1] and 7.7 nM on DDR1 kinase [2].

For `Cc1ccc2c(n1)c(C1CN(C(=O)c3ccnc(N)c3)C1)nn2CC(=O)N1CCC[C@H]1C(F)(F)F` [Compound E-12, 2-{3-[1-(2-aminopyridine-4-carbonyl)azetidin-3-yl]-5-methyl-1H-pyrazolo[4,3-b]pyridin-1-yl}-1-[(2S)-2-(trifluoromethyl)pyrrolidin-1-yl]ethan-1-one], the results for the IC50 on DDR1 kinase [1] and on DDR1 kinase [2] were 330 nM and 7.5 nM, respectively.

As for `Nc1cc(C(=O)N2CC(c3nn(CC(=O)N4CC(F)(F)C[C@H]4CF)c4ccccc34)C2)c(F)cn1` [Compound E-237, 2-{3-[1-(2-amino-5-fluoropyridine-4-carbonyl)azetidin-3-yl]-1H-indazol-1-yl]-1-[(2S)-4,4-difluoro-2-(fluoromethyl)pyrrolidin-1-yl]ethan-1-one], the IC50 at DDR1 kinase [1] came out at 34 nM; at DDR1 kinase [2], 3.8 nM.

Regarding `Nc1nccc(C(=O)N2CC(c3nn(CC(=O)N4CCC[C@H]4C(F)(F)F)c4cc(F)cc(F)c34)C2)n1` [Compound E-129, 2-{3-[1-(2-aminopyrimidine-4-carbonyl)azetidin-3-yl}-4,6-difluoro-1H-indazol-1-yl}-1-[(2S)-2-(trifluoromethyl)pyrrolidin-1-yl]ethan-1-one], the IC50 on DDR1 kinase [1] was determined as 70 nM; on DDR1 kinase [2] it was 6.3 nM.
